Experimental data reported in PubChem BioAssay (NCI).
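At the GI50, growth is halved. Definition used: TGI = concentration required for complete inhibition of growth.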

Key:
Test in all cases: inhibition of tumour cell growth, NCI panel, 384-well format
[1] = tested on: NCI-H23 lung
[2] = tested on: RXF 393 renal
[3] = tested on: T-47D breast
[4] = tested on: SK-OV-3 ovarian
[5] = tested on: SW-620 colon
[6] = tested on: SF-268 CNS
[7] = tested on: PC-3 prostate
[8] = tested on: OVCAR-5 ovarian
[9] = tested on: UACC-62 melanoma
[10] = tested on: K-562 leukemia
[11] = tested on: RPMI-8226 leukemia
[12] = tested on: MDA-MB-231 breast
[13] = tested on: SK-MEL-5 melanoma
[14] = tested on: U251 glioblastoma
[15] = tested on: COLO 205 colon
[16] = tested on: CCRF-CEM leukemia
[17] = tested on: ACHN renal
[18] = tested on: SK-MEL-2 melanoma
[19] = tested on: HCC-2998 colon
[20] = tested on: UO-31 renal
[21] = tested on: OVCAR-3 ovarian
[22] = tested on: NCI-H460 NSCLC
[23] = tested on: A498 renal
[24] = tested on: EKVX NSCLC

CCc1c(C#N)c(SC(C(N)=O)c2ccccc2)nc(N2CCC(N)CC2)c1C#N (configuration not stated)
GI50 [1]: 11.5 µM | TGI [1]: 23.7 µM | GI50 [2]: 16.2 µM | TGI [2]: 29.8 µM | GI50 [3]: 14.8 µM | TGI [3]: 28 µM | GI50 [4]: 17.9 µM | TGI [4]: 31.9 µM | GI50 [5]: 14.7 µM | TGI [5]: 28.1 µM | GI50 [6]: 13.5 µM | TGI [6]: 26.4 µM | GI50 [7]: 11.2 µM | TGI [7]: 23.4 µM | GI50 [8]: 16.1 µM | TGI [8]: 29.6 µM | GI50 [9]: 6.36 µM | TGI [9]: 19.7 µM | GI50 [10]: 5.63 µM | TGI [10]: 18.3 µM | GI50 [11]: 0.201 µM | TGI [11]: 1.38 µM | GI50 [12]: 16.2 µM | TGI [12]: 29.8 µM | GI50 [13]: 11 µM | TGI [13]: 23 µM | GI50 [14]: 12.5 µM | TGI [14]: 25.1 µM | GI50 [15]: 3.42 µM | TGI [15]: 17.4 µM | GI50 [16]: 6.52 µM | TGI [16]: 19 µM | GI50 [17]: 14.9 µM | TGI [17]: 28.2 µM | GI50 [18]: 12 µM | TGI [18]: 24.4 µM | GI50 [19]: 8.72 µM | TGI [19]: 20.9 µM | GI50 [20]: 18.1 µM | TGI [20]: 33 µM | GI50 [21]: 0.44 µM | TGI [21]: 6.5 µM | GI50 [22]: 11.2 µM | TGI [22]: 23.5 µM | GI50 [23]: 12.9 µM | TGI [23]: 25.6 µM | GI50 [24]: 15.4 µM
